What all share (experiment): In vitro MMP inhibition analysis (fluorogenic peptide substrate cleavage), Ki
Holding throughout (type): biochemical
Common to all, as to details: Table 2

One test addresses T1, Human recombinant MMP-2 (Homo sapiens, UniProt P08253).
T1 construct: made in house; host or cells: MMP-2-transfected p2AHT2 cells
T1 sequence (P08253 110-660): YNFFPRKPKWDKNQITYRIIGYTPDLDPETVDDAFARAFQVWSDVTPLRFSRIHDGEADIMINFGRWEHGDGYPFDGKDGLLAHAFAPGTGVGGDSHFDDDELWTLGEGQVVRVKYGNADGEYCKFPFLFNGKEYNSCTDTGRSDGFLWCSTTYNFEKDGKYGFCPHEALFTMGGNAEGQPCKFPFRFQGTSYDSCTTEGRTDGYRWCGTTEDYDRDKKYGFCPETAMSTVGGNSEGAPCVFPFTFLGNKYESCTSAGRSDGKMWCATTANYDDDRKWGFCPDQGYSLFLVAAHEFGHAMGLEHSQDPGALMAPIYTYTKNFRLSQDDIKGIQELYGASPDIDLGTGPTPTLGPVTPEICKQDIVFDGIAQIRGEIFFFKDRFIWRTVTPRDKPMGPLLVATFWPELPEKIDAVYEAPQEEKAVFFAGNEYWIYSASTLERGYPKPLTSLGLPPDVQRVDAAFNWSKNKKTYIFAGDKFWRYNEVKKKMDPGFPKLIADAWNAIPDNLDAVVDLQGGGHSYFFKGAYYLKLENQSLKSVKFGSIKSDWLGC
The method, boiled down:
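Human recombinant MMP-2 from transfected p2AHT2 cells was activated with APMA or trypsin and incubated 1 h at room temperature with compounds and 4 μM MCA-RPLGL(Dpa)ARER-NH2. Buffer was pH 7.5 Tris/NaCl/CaCl2, and fluorescence was read at ex 330/em 420 nm. Ki was fitted by Morrison's equation without substrate correction.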

Another test concerns the target T2, Human recombinant MMP-1 (Homo sapiens, UniProt P03956).
T2 construct: made in house; host or cells: MMP-1-transfected HT-1080 cells (spent media)
T2 sequence (P03956 100-469): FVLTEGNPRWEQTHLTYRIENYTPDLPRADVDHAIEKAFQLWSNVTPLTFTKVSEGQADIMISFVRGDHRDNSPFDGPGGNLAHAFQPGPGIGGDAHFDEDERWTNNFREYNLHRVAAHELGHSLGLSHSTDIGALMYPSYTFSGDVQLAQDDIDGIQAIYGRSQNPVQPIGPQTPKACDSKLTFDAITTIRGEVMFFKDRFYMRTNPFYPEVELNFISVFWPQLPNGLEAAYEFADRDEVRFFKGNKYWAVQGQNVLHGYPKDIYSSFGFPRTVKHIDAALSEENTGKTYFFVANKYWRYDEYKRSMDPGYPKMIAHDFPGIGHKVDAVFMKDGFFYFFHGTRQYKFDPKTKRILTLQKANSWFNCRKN
The procedure, abridged: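 APMA- or trypsin-activated recombinant human MMP-1 (purified from transfected HT-1080 medium) with 4 μM MCA/Dpa quenched fluorogenic peptide, 1 h at room temperature in Tris/NaCl/CaCl2 buffer pH 7.5; fluorescence ex 330/em 420 nm. Ki from Morrison-equation fit of rates, substrate at or below Km, uncorrected.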

In a further test the target is T3, Human recombinant MMP-9 (Homo sapiens, UniProt P14780).
T3 construct: made in house; host or cells: MMP-9-transfected HT1080 cells (spent media)
T3 sequence (P14780 107-707 limits assumed): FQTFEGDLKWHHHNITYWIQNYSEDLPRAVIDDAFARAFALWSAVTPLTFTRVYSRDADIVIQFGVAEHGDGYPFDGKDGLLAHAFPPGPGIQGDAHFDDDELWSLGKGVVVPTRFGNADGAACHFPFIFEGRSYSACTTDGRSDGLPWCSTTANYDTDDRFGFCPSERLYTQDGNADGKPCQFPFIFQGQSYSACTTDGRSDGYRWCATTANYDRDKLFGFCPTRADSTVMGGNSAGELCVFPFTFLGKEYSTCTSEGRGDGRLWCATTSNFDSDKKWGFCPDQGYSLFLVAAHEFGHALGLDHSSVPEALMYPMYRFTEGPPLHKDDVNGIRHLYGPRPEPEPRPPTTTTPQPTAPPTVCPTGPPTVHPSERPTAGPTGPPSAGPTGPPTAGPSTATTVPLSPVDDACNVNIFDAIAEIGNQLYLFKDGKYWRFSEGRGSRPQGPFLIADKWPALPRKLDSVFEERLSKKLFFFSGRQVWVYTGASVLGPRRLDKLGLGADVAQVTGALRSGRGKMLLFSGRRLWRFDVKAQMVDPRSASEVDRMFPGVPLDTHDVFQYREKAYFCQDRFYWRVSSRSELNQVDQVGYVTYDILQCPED
The method, boiled down: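 Recombinant MMP-9 purified from transfected HT1080 cell media, activated with APMA, trypsin or recombinant MMP-3, assayed in Tris buffer pH 7.5 with CaCl2 and 4 μM fluorogenic MCA/Dpa peptide, 1 h at room temperature (ex 330/em 420 nm). Ki from Morrison-equation regression of velocity; substrate at or below Km, uncorrected.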

Molecules are shown by their SMILES.

In general, Ki refers to the equilibrium dissociation constant of an inhibitor or competing ligand from its target.

For `O=C(NO)C1(S(=O)(=O)c2ccc(-c3ccc(CCC(F)(F)F)cc3)cc2)CCOCC1` [Example 161], the Ki at Human recombinant MMP-2 amounted to 0.15 nM; at Human recombinant MMP-1, 3350 nM; on Human recombinant MMP-9, 0.21 nM.
In the same order, the values of `O=C(NO)C1(S(=O)(=O)c2ccc(-c3cnc(C4CCCC4)cn3)cc2)CCOCC1` [Example 162] are 3.11 nM, above 10000 nM and 34 nM.
As to `CCOc1ccc(-c2ccc(S(=O)(=O)C3(C(=O)NO)CCOCC3)cc2)cc1` [Example 163], the Ki at Human recombinant MMP-2 is 0.02 nM; on Human recombinant MMP-1, 327 nM; on Human recombinant MMP-9, 0.03 nM.
The like results for `COCC#Cc1cnc(-c2ccc(S(=O)(=O)C3(C(=O)NO)CCOCC3)cc2)cn1` [Example 164] were, in that order, 0.6 nM, 2490 nM and 0.57 nM.
